Assay results taken from PubChem BioAssay AID288 (DTP/NCI, 2004).
Inconclusive results are not listed. Numbered stars: 1 amine (or outer) side, 2 acyl side, 3 side chain; on linkers, the order of the positions; unused ones are H or OH. Bridge positions count the residues as written; N and C are the ends. Square brackets hold non-standard residues; d marks the D form. Peptide text beside a SMILES is read from it. I, II: the chains in the order shown. * marks the point of attachment. ξ: configuration not given here. Quinaldoyl(3-OH,6-OMe) = COc1ccc2nc(C(=O)*)c(O)cc2c1; X1 = CCC(=O)OC1CC=NN([*:1])C1C(=O)[*:2]; X2 = CC(=O)OC1CC=NN([*:1])C1C(=O)[*:2]; ξNMeVal(3-OH) = CNC(C(=O)O)C(C)(C)O; Sar = CNCC(=O)O

Tested on: BDF1 mice, M5076 sarcoma s.c., survival/tumor T/C
Experiment: NCI In Vivo Anticancer Drug Screen. Data for tumor model Sarcoma M5076 (subcutaneous) in B6D2F1 (BDF1) mice
Description: The antitumor activity of compounds was measured in mice bearing transplantable tumors. Survival or tumor size were measured and the results are expressed as the measurement made in the treated group (T) divided by the measurement made in the vehicle treated control group (C). The tumor model used in this assay is Sarcoma M5076 (subcutaneous) in B6D2F1 (BDF1) mice

[1] = endpoint: median survival time, dose: 50.0 mg/kg/injection, schedule: Q01DX009 (ip), vehicle: saline with Tween-80, higher = longer survival
[2] = endpoint: median survival time, dose: 100.0 mg/kg/injection, schedule: Q01DX009 (ip), vehicle: saline with Tween-80, higher = longer survival
[3] = endpoint: median survival time, dose: 200.0 mg/kg/injection, schedule: Q01DX009 (ip), vehicle: saline with Tween-80, higher = longer survival
[4] = endpoint: median tumor weight (est.), dose: 50.0 mg/kg/injection, schedule: Q01DX009 (ip), vehicle: saline with Tween-80, higher = larger tumour
[5] = endpoint: median tumor weight (est.), dose: 200.0 mg/kg/injection, schedule: Q01DX009 (ip), vehicle: saline with Tween-80, higher = larger tumour

CCCCCCC(=O)O[C@H]1CC[C@H]2[C@@H]3CCC4=CC(=O)CC[C@]4(C)[C@H]3CC[C@]12C
T/C (endpoint: mean tumor weight, dose: 15.0 mg/kg/injection, schedule: Q02DX011 (ip), vehicle: Klucel (hydroxypropylcellulose) (HPC), higher = larger tumour): 43 % of control | T/C (endpoint: mean tumor weight, dose: 30.0 mg/kg/injection, schedule: Q02DX011 (ip), vehicle: Klucel (hydroxypropylcellulose) (HPC), higher = larger tumour): 68 % of control | T/C (endpoint: median tumor weight (est.), dose: 7.5 mg/kg/injection, schedule: Q02DX011 (ip), vehicle: Klucel (hydroxypropylcellulose) (HPC), higher = larger tumour): 124 % of control | T/C (endpoint: median tumor weight (est.), dose: 15.0 mg/kg/injection, schedule: Q02DX011 (ip), vehicle: Klucel (hydroxypropylcellulose) (HPC), higher = larger tumour): 21 % of control | T/C (endpoint: median tumor weight (est.), dose: 30.0 mg/kg/injection, schedule: Q02DX011 (ip), vehicle: Klucel (hydroxypropylcellulose) (HPC), higher = larger tumour): 52 % of control

O=C1NC2(CCCCC2)C(=O)N1CCN(CCCl)CCCl
T/C (endpoint: median tumor weight (est.), dose: 16.0 mg/kg/injection, schedule: Q01DX009 (ip), vehicle: saline with Tween-80, higher = larger tumour): 10 % of control

CCC(=O)OC1CC=NN2C(=O)C(NC(=O)c3nc4ccc(OC)cc4cc3O)COC(=O)C(C(C)(C)O)N(C)C(=O)CN(C)C(=O)CNC(=O)C3C(OC(C)=O)CC=NN3C(=O)C(NC(=O)c3nc4ccc(OC)cc4cc3O)COC(=O)C(C(C)(C)O)N(C)C(=O)CN(C)C(=O)CNC(=O)C12 (centres undefined) (I: {Quinaldoyl(3-OH,6-OMe)}-S[X1]G[Sar][ξNMeVal(3-OH)] / II: {Quinaldoyl(3-OH,6-OMe)}-S[X2]G[Sar][ξNMeVal(3-OH)]; ester I:1-II:C, I:C-II:1; configuration not given here)
T/C (endpoint: median survival time, dose: 18.8 micrograms/kg/injection, schedule: Q01DX009 (ip), vehicle: Klucel (hydroxypropylcellulose) (HPC), higher = longer survival): 89 % of control | T/C (endpoint: median tumor weight (est.), dose: 18.8 micrograms/kg/injection, schedule: Q01DX009 (ip), vehicle: DMSO, higher = larger tumour): 86 % of control

CCC/C=C/C=C/C(=O)OC1/C(=C/C(=O)OC)CC2CC(C(C)O)OC(=O)CC(O)CC3CC(OC(C)=O)C(C)(C)C(O)(CC4C/C(=C/C(=O)OC)CC(/C=C/C(C)(C)C1(O)O2)O4)O3 (centres undefined)
T/C (endpoint: median survival time, dose: 5.0 micrograms/kg/injection, schedule: Q01DX009 (ip), vehicle: saline + Tween-80 + alcohol, higher = longer survival): 100 % of control | T/C (endpoint: median survival time, dose: 5.0 micrograms/kg/injection, schedule: Q01DX009 (ip), vehicle: saline + alcohol, higher = longer survival): 106 % of control | T/C (endpoint: median survival time, dose: 10.0 micrograms/kg/injection, schedule: Q01DX009 (ip), vehicle: saline + Tween-80 + alcohol, higher = longer survival): 97 % of control | T/C (endpoint: median survival time, dose: 10.0 micrograms/kg/injection, schedule: Q01DX009 (ip), vehicle: saline + alcohol, higher = longer survival): 96 % of control | T/C (endpoint: median survival time, dose: 20.0 micrograms/kg/injection, schedule: Q01DX009 (ip), vehicle: saline + Tween-80 + alcohol, higher = longer survival): 111 % of control | T/C (endpoint: median survival time, dose: 20.0 micrograms/kg/injection, schedule: Q01DX009 (ip), vehicle: saline + alcohol, higher = longer survival): 111 % of control | T/C (endpoint: median survival time, dose: 80.0 micrograms/kg/injection, schedule: Q01DX009 (ip), vehicle: saline + Tween-80 + alcohol, higher = longer survival): 103 % of control | T/C (endpoint: median survival time, dose: 80.0 micrograms/kg/injection, schedule: Q01DX009 (ip), vehicle: saline + alcohol, higher = longer survival): 103 % of control | T/C (endpoint: median tumor weight (est.), dose: 5.0 micrograms/kg/injection, schedule: Q01DX009 (ip), vehicle: saline + Tween-80 + alcohol, higher = larger tumour): 102 % of control | T/C (endpoint: median tumor weight (est.), dose: 5.0 micrograms/kg/injection, schedule: Q01DX009 (ip), vehicle: saline + alcohol, higher = larger tumour): 198 % of control | T/C (endpoint: median tumor weight (est.), dose: 10.0 micrograms/kg/injection, schedule: Q01DX009 (ip), vehicle: saline + Tween-80 + alcohol, higher = larger tumour): 89 % of control | T/C (endpoint: median tumor weight (est.), dose: 10.0 micrograms/kg/injection, schedule: Q01DX009 (ip), vehicle: saline + alcohol, higher = larger tumour): 107 % of control | T/C (endpoint: median tumor weight (est.), dose: 20.0 micrograms/kg/injection, schedule: Q01DX009 (ip), vehicle: saline + Tween-80 + alcohol, higher = larger tumour): 83 % of control | T/C (endpoint: median tumor weight (est.), dose: 20.0 micrograms/kg/injection, schedule: Q01DX009 (ip), vehicle: saline + alcohol, higher = larger tumour): 10 % of control | T/C (endpoint: median tumor weight (est.), dose: 40.0 micrograms/kg/injection, schedule: Q01DX009 (ip), vehicle: saline + Tween-80 + alcohol, higher = larger tumour): 11 % of control

Nc1ccc(N2N=C(N3CCCC3)CC2=O)cc1
T/C [1]: 100 % of control | T/C [2]: 99 % of control | T/C [3]: 94 % of control | T/C [4]: 112 % of control | T/C [5]: 80 % of control

O=C1CC(=O)N(C2CCCCC2)C(=O)N1c1ccccc1S(=O)(=O)Oc1ccccc1
T/C [1]: 94 % of control | T/C [2]: 90 % of control | T/C [3]: 100 % of control | T/C [4]: 111 % of control | T/C (endpoint: median tumor weight (est.), dose: 100.0 mg/kg/injection, schedule: Q01DX009 (ip), vehicle: saline with Tween-80, higher = larger tumour): 56 % of control | T/C [5]: 96 % of control
